# Data reported in patent US20240148821A1, “PHARMACEUTICAL USE OF CYCLIC PEPTIDE COMPOUND” (CHUGAI SEIYAKU KABUSHIKI KAISHA, priority 2021, published 2024).
# Numbered stars: 1 amine (or outer) side, 2 acyl side, 3 side chain; on linkers, the order of the positions; unused ones are H or OH. Bridge positions count the residues as written; N and C are the ends. Square brackets hold non-standard residues; d marks the D form. Peptide text beside a SMILES is read from it. * marks the point of attachment. hPhe(3-Cl-4-CF3) = N[C@@H](CCc1ccc(C(F)(F)F)c(Cl)c1)C(=O)O; hPhe(3-F,4-CF3) = N[C@@H](CCc1ccc(C(F)(F)F)c(F)c1)C(=O)O; NMePhe(4-CF3) = CN[C@@H](Cc1ccc(C(F)(F)F)cc1)C(=O)O; hPhe(4-CF3) = N[C@@H](CCc1ccc(C(F)(F)F)cc1)C(=O)O; NMePhe(4-Cl) = CN[C@@H](Cc1ccc(Cl)cc1)C(=O)O; NMePhe(4-Me) = CN[C@@H](Cc1ccc(C)cc1)C(=O)O; NMedβ3hAla = C[C@H](CC(=O)[*:2])N(C)[*:1]; X42 = CC(C)C[C@H](CC(=O)[*:2])N(C)[*:1]; NMeGly(cPent) = CN[C@H](C(=O)O)C1CCCC1; NMeCha = CN[C@@H](CC1CCCCC1)C(=O)O; NMeF = CN[C@@H](Cc1ccccc1)C(=O)O; NMeI = CC[C@H](C)[C@H](NC)C(=O)O; d(β3hL) = CC(C)C[C@@H](N)CC(=O)O; NMeD = CN[C@@H](CC(=O)O)C(=O)O; NMeL = CN[C@@H](CC(C)C)C(=O)O; NMeV = CN[C@H](C(=O)O)C(C)C; d(β3hA) = C[C@@H](N)CC(=O)O; Pip = O=C(O)[C@@H]1CCCCN1; Morpholide = C1CN(*)CCO1; NMeA = CN[C@@H](C)C(=O)O; Pyrrolidide = C1CCN(*)C1; dNMeA = CN[C@H](C)C(=O)O; Ac5c = NC1(C(=O)O)CCCC1; Aze = O=C(O)[C@@H]1CCN1; Aib = CC(C)(N)C(=O)O; Sar = CNCC(=O)O
# Target: protein-protein interaction between Kras and SOS1 (biotin-tagged human Kras loaded with GDP, His-tagged human SOS1) (Homo sapiens (Human), UniProt P01116, G12D)
# Assay: Protein-protein interaction inhibition between Kras and SOS1 (KrasG12D-SOS PPI) using AlphaScreen;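 further: kras produced in E. coli, Ni-coupled donor beads and streptavidin acceptor beads, excitation 680 nm with emission detected at 520–620 nm via singlet oxygen transfer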
# Type: biochemical
# Settings: AlphaScreen; biotin-tagged human Kras loaded with GDP, His-tagged human SOS1; read-out: KRAS G12D-SOS PPI IC50
row,SMILES,IC50
1,CC[C@H](C)[C@@H]1NC(=O)[C@H](C)N(C)C(=O)C[C@@H](CC(C)C)NC(=O)[C@H](C(C)C)N(C)C(=O)[C@H](Cc2ccccc2)N(C)C(=O)[C@H](CC(C)C)N(C)C(=O)[C@H](CCc2ccc(C(F)(F)F)cc2)NC(=O)CN(C)C(=O)[C@H](Cc2ccc(Cl)cc2)N(C)C(=O)CN(C)C(=O)CN(C)C1=O [Compound 972] (cyclo(I[Sar][Sar][NMePhe(4-Cl)][Sar][hPhe(4-CF3)][NMeL][NMeF][NMeV][d(β3hL)][NMeA])),330 nM
2,CC[C@H](C)[C@@H]1NC(=O)[C@H](CC(C)C)N(C)C(=O)C[C@@H](C(=O)N2CCOCC2)N(C)C(=O)[C@H](C2CCCC2)N(C)C(=O)C2(CCCC2)NC(=O)[C@@H]2CCCN2C(=O)[C@H](CCc2ccc(C(F)(F)F)c(Cl)c2)NC(=O)CN(C)C(=O)[C@H](CC2CCCCC2)N(C)C(=O)[C@@H]2CCN2C(=O)[C@H](C)NC1=O [Compound 1137] ([NMeL]IA[Aze][NMeCha][Sar][hPhe(3-Cl-4-CF3)]P[Ac5c][NMeGly(cPent)][NMeD]-Morpholide; lactam N-11),4.6 nM
3,CC[C@H](C)[C@@H]1NC(=O)[C@H](C)N(C)C(=O)C[C@@H](C)N(C)C(=O)[C@H](CC(C)C)NC(=O)C(C)(C)NC(=O)[C@H](CC(C)C)NC(=O)[C@H](CCc2ccc(C(F)(F)F)cc2)NC(=O)CN(C)C(=O)[C@H](Cc2ccc(Cl)cc2)N(C)C(=O)CN(C)C(=O)CN(C)C1=O [Compound 170] (cyclo([Aib]L[NMedβ3hAla][NMeA]I[Sar][Sar][NMePhe(4-Cl)][Sar][hPhe(4-CF3)]L)),350 nM
4,"CC[C@H](C)[C@@H]1NC(=O)[C@H](CC(C)C)N(C)C(=O)C[C@@H](C(=O)N2CCCC2)N(C)C(=O)[C@H](C2CCCC2)N(C)C(=O)C2(CCCC2)NC(=O)[C@@H]2CCCN2C(=O)[C@H](CCc2ccc(C(F)(F)F)c(F)c2)NC(=O)CN(C)C(=O)[C@H](C2CCCC2)N(C)C(=O)[C@@H]2CCN2C(=O)[C@H](C)N(C)C1=O [Compound 918] ([NMeL]I[NMeA][Aze][NMeGly(cPent)][Sar][hPhe(3-F,4-CF3)]P[Ac5c][NMeGly(cPent)][NMeD]-Pyrrolidide; lactam N-11)",0.89 nM
5,CC[C@H](C)[C@@H]1NC(=O)[C@H](CC(C)C)N(C)C(=O)C[C@@H](C)NC(=O)[C@H](C2CCCC2)N(C)C(=O)C2(CCCC2)NC(=O)[C@@H]2CCCN2C(=O)[C@H](CCc2ccc(C(F)(F)F)c(Cl)c2)NC(=O)[C@@H](C)N(C)C(=O)[C@H](Cc2ccc(C)cc2)N(C)C(=O)[C@@H]2CCN2C(=O)[C@H](C)N(C)C1=O [Compound 1504] (cyclo([Ac5c][NMeGly(cPent)][d(β3hA)][NMeL]I[NMeA][Aze][NMePhe(4-Me)][dNMeA][hPhe(3-Cl-4-CF3)]P)),57 nM
6,CC[C@H](C)[C@@H]1NC(=O)[C@H](CC(C)C)N(C)C(=O)C[C@@H](C(=O)N2CCCC2)N(C)C(=O)[C@H](C2CCCC2)N(C)C(=O)C2(CCCC2)NC(=O)[C@@H]2CCCN2C(=O)[C@H](CCc2ccc(C(F)(F)F)c(Cl)c2)NC(=O)CN(C)C(=O)[C@H](C2CCCC2)N(C)C(=O)[C@@H]2CCN2C(=O)[C@H](C)N(C)C1=O [Compound 201] ([NMeL]I[NMeA][Aze][NMeGly(cPent)][Sar][hPhe(3-Cl-4-CF3)]P[Ac5c][NMeGly(cPent)][NMeD]-Pyrrolidide; lactam N-11),0.58 nM
7,CC[C@H](C)[C@@H]1NC(=O)[C@H](C)N(C)C(=O)C[C@@H](C)NC(=O)[C@H](C2CCCC2)N(C)C(=O)C2(CCCC2)NC(=O)[C@@H]2CCCN2C(=O)[C@H](CCc2ccc(C(F)(F)F)c(Cl)c2)NC(=O)CN(C)C(=O)[C@H](Cc2ccc(C(F)(F)F)cc2)N(C)C(=O)[C@@H]2CCCN2C(=O)CN(C)C1=O [Compound 749] (cyclo([Ac5c][NMeGly(cPent)][d(β3hA)][NMeA]I[Sar]P[NMePhe(4-CF3)][Sar][hPhe(3-Cl-4-CF3)]P)),2.8 nM
8,CC[C@H](C)[C@@H]1NC(=O)[C@H](CC(C)C)N(C)C(=O)C[C@@H](CC(C)C)N(C)C(=O)[C@H]([C@@H](C)CC)N(C)C(=O)C2(CCCC2)NC(=O)[C@@H]2CCCN2C(=O)[C@H](CCc2ccc(C(F)(F)F)c(Cl)c2)NC(=O)CN(C)C(=O)[C@H](Cc2ccc(C)cc2)N(C)C(=O)[C@@H]2CCN2C(=O)[C@H](C)N(C)C1=O [Compound 1974] (cyclo([Ac5c][NMeI][X42][NMeL]I[NMeA][Aze][NMePhe(4-Me)][Sar][hPhe(3-Cl-4-CF3)]P)),45 nM
9,CC[C@H](C)[C@@H]1NC(=O)[C@@H]2CCCCN2C(=O)C[C@@H](C)NC(=O)[C@H](CC(C)C)N(C)C(=O)C2(CCCC2)NC(=O)[C@@H]2CCCN2C(=O)[C@H](CCc2ccc(C(F)(F)F)cc2)NC(=O)CN(C)C(=O)[C@H](Cc2ccc(Cl)cc2)N(C)C(=O)CN(C)C(=O)CN(C)C1=O [Compound 227] (cyclo([Ac5c][NMeL][d(β3hA)][Pip]I[Sar][Sar][NMePhe(4-Cl)][Sar][hPhe(4-CF3)]P)),82 nM
